From ChEMBL document CHEMBL2150907, “BACE-Inhibitors: Potential Treatment of Alzheimer Disease, Dementia, and Related Neurodegenerative Diseases. C. Spiro-Heterocyclic Derivatives: Patent Highlight” (ACS Med Chem Lett, 2012)

These compounds were tested against Beta-secretase 1 (Homo sapiens, UniProt P56817) (assay: Inhibition of BACE1-mediated amyloid beta (1 to 40) production after 48 hrs by cell based HTRF immunoassay).
Beta-secretase 1, sequence (P56817 whole entry): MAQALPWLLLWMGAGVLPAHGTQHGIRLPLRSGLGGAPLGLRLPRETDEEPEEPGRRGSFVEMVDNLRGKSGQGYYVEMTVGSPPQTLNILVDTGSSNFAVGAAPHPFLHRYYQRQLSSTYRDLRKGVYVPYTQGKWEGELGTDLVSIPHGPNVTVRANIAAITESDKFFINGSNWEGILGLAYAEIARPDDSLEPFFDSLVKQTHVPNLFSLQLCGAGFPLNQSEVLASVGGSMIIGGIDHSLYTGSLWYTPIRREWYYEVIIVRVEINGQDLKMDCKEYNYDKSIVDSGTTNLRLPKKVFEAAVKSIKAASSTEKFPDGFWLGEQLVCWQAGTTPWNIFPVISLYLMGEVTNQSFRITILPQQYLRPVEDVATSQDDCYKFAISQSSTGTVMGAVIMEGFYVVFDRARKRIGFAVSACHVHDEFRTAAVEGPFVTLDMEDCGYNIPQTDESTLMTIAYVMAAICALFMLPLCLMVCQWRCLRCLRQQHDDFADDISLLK

| Compound | IC50 |
| --- | --- |
| CN1C(=O)CC2(N=C1N)c1cc(-c3cc(F)cc(Cl)c3)ccc1OC1CC3(CC[C@@H]12)OCCO3 (stereo partly drawn) | 3080 nM |
| NC1=N[C@]2(CO1)c1cc(-c3cncc(Cl)c3)ccc1OC1OC[C@H](OCC3CC3)C[C@@H]12 (mixture of isomers) | 8.9 nM |
| NC1=N[C@@]2(CO1)c1cc(-c3cncc(Cl)c3)ccc1OC1OC[C@H](OCC3CC3)C[C@@H]12 (single isomer, unassigned) | 7.8 nM |
